Source: ChEMBL document CHEMBL5338823, “Discovery of Novel 5,6-Dihydro-1,2,4-triazine Derivatives as Efficacious Glucagon-Like Peptide-1 Receptor Agonists” (J Med Chem, 2023)
One block for each compound: values may come before it. The source made the active and inactive calls. The calls are words filed in the database; no cut-off is given here.

Columns and labels:
hERG (KCNH2) [1] = target: T1, hERG (KCNH2) (Homo sapiens, UniProt Q12809); test: Inhibition of hERG at 40 uM relative to control
[2] = target: Voltage-gated inwardly rectifying potassium channel KCNH2 (Homo sapiens, UniProt Q12809); test: Inhibition of hERG
[3] = target: T2, Glucagon-like peptide 1 receptor (Homo sapiens, UniProt P43220); test: Agonist activity at N-terminal HA-tagged human GLP-1R expressed in HEK293 cells assessed as effect on intracellular cAMP accumulation incubated for 30 mins by LANCA ultra cAMP assay; assay type: functional, cell-based
[4] = Stability in human liver microsomes assessed as half-life at 1 uM measured upto 60 mins in the presence of NADPH by LC-MS/MS analysis; assay type: ADME, Microsome
[5] = Stability in rat liver microsomes assessed as half-life at 1 uM measured upto 60 mins in the presence of NADPH by LC-MS/MS analysis; assay type: ADME, Microsome
[6] = Stability in mouse liver microsomes assessed as half-life at 1 uM measured upto 60 mins in the presence of NADPH by LC-MS/MS analysis; assay type: ADME, Microsome
[7] = Stability in human liver microsomes assessed as intrinsic clearance at 1 uM measured upto 60 mins in the presence of NADPH by LC-MS/MS analysis; assay type: ADME, Microsome; conditions: 1 h
[8] = Stability in rat liver microsomes assessed as intrinsic clearance at 1 uM measured upto 60 mins in the presence of NADPH by LC-MS/MS analysis; assay type: ADME, Microsome; conditions: 1 h
[9] = Stability in mouse liver microsomes assessed as intrinsic clearance at 1 uM measured upto 60 mins in the presence of NADPH by LC-MS/MS analysis; assay type: ADME, Microsome; conditions: 1 h
[10] = Drug concentration in C57BL/6J mouse plasma at 5 mg/kg, po measured after 1 hrs by LC-MS/MS analysis; assay type: ADME, organism-based
[11] = Drug concentration in C57BL/6J mouse plasma at 5 mg/kg, po measured after 4 hrs by LC-MS/MS analysis; assay type: ADME, organism-based
[12] = Apparent permeability across apical to basolateral side in human Caco-2 cells at 10 uM measured after 95 mins by LC-MS/MS analysis; assay type: ADME, cell-based
[13] = target: T3, Glucagon-like peptide 1 receptor (Mus musculus) (UniProt O35659); test: Activation of mouse GLP-1R
T3 sequence (whole entry): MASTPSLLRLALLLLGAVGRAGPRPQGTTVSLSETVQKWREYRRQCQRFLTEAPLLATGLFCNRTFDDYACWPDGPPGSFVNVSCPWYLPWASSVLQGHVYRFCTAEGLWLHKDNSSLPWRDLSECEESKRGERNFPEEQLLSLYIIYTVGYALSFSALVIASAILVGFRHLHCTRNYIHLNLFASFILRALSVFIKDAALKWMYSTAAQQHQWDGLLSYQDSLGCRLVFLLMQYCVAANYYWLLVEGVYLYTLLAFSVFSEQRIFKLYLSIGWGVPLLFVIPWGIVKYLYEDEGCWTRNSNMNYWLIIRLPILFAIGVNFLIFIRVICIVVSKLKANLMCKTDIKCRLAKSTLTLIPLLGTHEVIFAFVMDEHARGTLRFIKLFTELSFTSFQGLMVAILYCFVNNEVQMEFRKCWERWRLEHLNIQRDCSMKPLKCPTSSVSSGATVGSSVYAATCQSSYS

[14] = Half-life in Sprague-Dawley rat at 5 mg/kg, po measured upto 24 hrs by LC-MS/MS analysis; assay type: ADME, organism-based; conditions: in vivo
[15] = Tmax in Sprague-Dawley rat at 5 mg/kg, po measured upto 24 hrs by LC-MS/MS analysis; assay type: ADME, organism-based; conditions: in vivo
[16] = Cmax in Sprague-Dawley rat at 5 mg/kg, po measured upto 24 hrs by LC-MS/MS analysis; assay type: ADME, organism-based; set-up: time < 24 hrs, dose 5 mg/kg, route po; conditions: in vivo
[17] = AUClast in Sprague-Dawley rat at 5 mg/kg, po measured upto 24 hrs by LC-MS/MS analysis; assay type: ADME, organism-based; set-up: dose 5 mg/kg, time < 24 hrs, route po; conditions: in vivo
[18] = target: T2, Glucagon-like peptide 1 receptor; test: Agonist activity at N-terminal HA-tagged human GLP-1R expressed in HEK293 cells assessed as change in intracellular calcium level by Fluo-4 AM dye based calcium mobilization assay; assay type: functional, cell-based
[19] = target: T2, Glucagon-like peptide 1 receptor; test: (§1) Partial agonist activity at N-terminal HA-tagged human GLP-1R expressed in HEK293 cells co-expressing Smbit-beta-arrestin 1/2 and GLP-1R-LgBit assessed as beta-arrestin-1 recruitment measured after 5 mins by bioluminescence based NanoBiT assay; assay type: functional, cell-based
[20] = target: T2, Glucagon-like peptide 1 receptor; test: (§2) Partial agonist activity at N-terminal HA-tagged human GLP-1R expressed in HEK293 cells co-expressing Smbit-beta-arrestin 1/2 and GLP-1R-LgBit assessed as beta-arrestin-2 recruitment measured after 5 mins by bioluminescence based NanoBiT assay; assay type: functional, cell-based
Mus musculus [21] = test: (§3) In vivo agonist activity at GLP-1R in C57BL/6J mouse with human GLP-1R knock-in assessed as reduction in blood glucose level at 1 mg/kg, po pre-treated with compound for 1 hrs followed by glucose administration and measured upto 90 mins by Oral Glucose Tolerance Test; assay type: functional, organism-based; conditions: time <= 150.0 min
Mus musculus [22] = test: as §3, with “administration for 3 hrs and further treated with second glucose dose” for “administration”, “270” for “90”; assay type: functional, organism-based; conditions: time <= 330.0 min
Mus musculus [23] = test: In vivo agonist activity at GLP-1R in C57BL/6J mouse with human GLP-1R knock-in assessed as reduction in food intake at 30 mg/kg, sc measured after 2.5 to 12 hrs in dark cycle; assay type: functional, organism-based; conditions: time 2.5-12 hrs
[24] = target: T2, Glucagon-like peptide 1 receptor; test: as §1, with “Potency index, ratio of danuglipron EC50 to test compound EC50 for partial” for “Partial”; assay type: functional, cell-based
[25] = target: T2, Glucagon-like peptide 1 receptor; test: as §2, with “Potency index, ratio of danuglipron EC50 to test compound EC50 for partial” for “Partial”; assay type: functional, cell-based
[26] = target: T2, Glucagon-like peptide 1 receptor; test: Potency index, ratio of danuglipron EC50 to test compound EC50 for agonist activity at N-terminal HA-tagged human GLP-1R expressed in HEK293 cells assessed as change in intracellular calcium level by Fluo-4 AM dye based calcium mobilization assay; assay type: functional, cell-based
[27] = target: T4, Gastric inhibitory polypeptide receptor (Homo sapiens) (UniProt P48546); test: Agonist activity at GIPR (unknown origin) expressed in HEK293 cells assessed as effect on intracellular cAMP accumulation incubated for 30 mins by LANCA ultra cAMP assay; assay type: functional, cell-based
T4 sequence (whole entry): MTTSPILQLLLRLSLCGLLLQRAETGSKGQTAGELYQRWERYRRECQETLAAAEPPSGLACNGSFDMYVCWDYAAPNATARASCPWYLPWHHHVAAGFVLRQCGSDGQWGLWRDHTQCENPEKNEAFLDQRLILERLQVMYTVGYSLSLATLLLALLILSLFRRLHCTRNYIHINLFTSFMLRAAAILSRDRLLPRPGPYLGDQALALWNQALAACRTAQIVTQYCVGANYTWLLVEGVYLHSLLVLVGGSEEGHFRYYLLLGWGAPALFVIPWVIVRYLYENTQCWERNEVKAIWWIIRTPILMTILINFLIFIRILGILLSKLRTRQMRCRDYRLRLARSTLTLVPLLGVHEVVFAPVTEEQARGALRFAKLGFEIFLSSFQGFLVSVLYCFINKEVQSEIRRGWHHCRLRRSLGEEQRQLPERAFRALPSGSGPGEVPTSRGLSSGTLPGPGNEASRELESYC

[28] = target: T5, Glucagon-like peptide 2 receptor (Homo sapiens) (UniProt O95838); test: Agonist activity at GLP-2R (unknown origin) expressed in HEK293 cells assessed as effect on intracellular cAMP accumulation incubated for 30 mins by LANCA ultra cAMP assay; assay type: functional, cell-based
T5 sequence (whole entry): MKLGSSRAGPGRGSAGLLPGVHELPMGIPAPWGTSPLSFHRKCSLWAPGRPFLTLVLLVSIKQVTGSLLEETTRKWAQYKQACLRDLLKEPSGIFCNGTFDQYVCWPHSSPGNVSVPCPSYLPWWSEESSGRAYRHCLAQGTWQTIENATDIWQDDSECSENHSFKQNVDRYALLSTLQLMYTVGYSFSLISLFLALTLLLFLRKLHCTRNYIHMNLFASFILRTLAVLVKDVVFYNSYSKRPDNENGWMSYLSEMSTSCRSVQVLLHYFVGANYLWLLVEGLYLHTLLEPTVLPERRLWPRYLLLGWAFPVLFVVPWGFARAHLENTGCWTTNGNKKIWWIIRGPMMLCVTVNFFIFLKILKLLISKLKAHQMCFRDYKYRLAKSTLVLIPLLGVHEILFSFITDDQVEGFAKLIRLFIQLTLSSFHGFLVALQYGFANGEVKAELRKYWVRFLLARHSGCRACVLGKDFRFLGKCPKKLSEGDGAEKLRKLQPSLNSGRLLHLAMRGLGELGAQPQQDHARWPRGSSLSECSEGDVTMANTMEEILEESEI

[29] = target: Glucagon receptor (Homo sapiens) (UniProt P47871); test: Agonist activity at GCGR (unknown origin) expressed in HEK293 cells assessed as effect on intracellular cAMP accumulation incubated for 30 mins by LANCA ultra cAMP assay; assay type: functional, cell-based
hERG (KCNH2) [30] = target: T1, hERG (KCNH2); test: Inhibition of hERG at 3 uM relative to control

T1 sequence (Q12809 whole entry): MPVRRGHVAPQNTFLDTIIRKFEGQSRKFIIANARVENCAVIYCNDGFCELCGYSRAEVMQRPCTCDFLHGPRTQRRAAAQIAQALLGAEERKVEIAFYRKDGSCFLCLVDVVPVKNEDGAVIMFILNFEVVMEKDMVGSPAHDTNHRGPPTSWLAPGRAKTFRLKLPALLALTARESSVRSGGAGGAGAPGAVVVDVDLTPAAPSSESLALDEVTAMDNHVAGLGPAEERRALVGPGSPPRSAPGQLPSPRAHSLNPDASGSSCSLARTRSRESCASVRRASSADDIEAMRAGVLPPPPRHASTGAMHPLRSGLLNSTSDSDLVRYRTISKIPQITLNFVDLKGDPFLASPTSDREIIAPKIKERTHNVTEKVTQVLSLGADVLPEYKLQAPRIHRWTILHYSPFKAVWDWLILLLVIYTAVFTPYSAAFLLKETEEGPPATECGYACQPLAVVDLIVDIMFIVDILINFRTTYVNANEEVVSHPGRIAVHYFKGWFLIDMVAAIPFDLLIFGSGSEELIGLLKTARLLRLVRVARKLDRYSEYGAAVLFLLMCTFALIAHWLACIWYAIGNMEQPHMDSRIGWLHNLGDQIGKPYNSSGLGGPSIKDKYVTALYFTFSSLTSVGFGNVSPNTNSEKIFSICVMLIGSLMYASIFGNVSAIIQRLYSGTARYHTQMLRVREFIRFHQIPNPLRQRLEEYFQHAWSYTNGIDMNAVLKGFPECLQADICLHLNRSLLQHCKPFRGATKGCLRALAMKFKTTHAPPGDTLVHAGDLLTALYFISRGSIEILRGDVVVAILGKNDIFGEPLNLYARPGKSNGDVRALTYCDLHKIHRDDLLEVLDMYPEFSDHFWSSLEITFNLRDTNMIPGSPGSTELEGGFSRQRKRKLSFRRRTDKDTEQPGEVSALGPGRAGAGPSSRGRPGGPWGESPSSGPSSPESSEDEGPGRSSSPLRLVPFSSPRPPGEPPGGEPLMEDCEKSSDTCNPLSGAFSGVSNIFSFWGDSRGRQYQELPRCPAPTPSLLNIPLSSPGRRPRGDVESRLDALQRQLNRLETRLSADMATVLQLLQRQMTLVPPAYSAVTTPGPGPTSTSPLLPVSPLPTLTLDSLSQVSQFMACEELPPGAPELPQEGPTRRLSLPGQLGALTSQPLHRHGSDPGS
T2 sequence (P43220 whole entry): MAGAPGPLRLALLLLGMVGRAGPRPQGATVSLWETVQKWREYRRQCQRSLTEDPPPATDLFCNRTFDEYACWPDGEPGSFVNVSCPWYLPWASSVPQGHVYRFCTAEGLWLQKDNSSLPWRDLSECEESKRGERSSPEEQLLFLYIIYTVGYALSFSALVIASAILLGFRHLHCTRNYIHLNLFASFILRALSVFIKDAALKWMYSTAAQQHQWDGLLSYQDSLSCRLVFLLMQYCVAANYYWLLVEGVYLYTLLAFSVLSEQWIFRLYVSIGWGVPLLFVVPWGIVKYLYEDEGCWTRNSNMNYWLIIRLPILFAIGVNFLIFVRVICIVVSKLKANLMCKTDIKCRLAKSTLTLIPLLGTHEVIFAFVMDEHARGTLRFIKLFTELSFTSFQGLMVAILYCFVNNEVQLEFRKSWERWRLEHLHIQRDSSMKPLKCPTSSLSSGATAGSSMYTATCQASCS
Voltage-gated inwardly rectifying potassium channel KCNH2, sequence (Q12809 whole entry): as the sequence (Q12809 whole entry) above
Glucagon receptor (Homo sapiens), sequence (P47871 whole entry): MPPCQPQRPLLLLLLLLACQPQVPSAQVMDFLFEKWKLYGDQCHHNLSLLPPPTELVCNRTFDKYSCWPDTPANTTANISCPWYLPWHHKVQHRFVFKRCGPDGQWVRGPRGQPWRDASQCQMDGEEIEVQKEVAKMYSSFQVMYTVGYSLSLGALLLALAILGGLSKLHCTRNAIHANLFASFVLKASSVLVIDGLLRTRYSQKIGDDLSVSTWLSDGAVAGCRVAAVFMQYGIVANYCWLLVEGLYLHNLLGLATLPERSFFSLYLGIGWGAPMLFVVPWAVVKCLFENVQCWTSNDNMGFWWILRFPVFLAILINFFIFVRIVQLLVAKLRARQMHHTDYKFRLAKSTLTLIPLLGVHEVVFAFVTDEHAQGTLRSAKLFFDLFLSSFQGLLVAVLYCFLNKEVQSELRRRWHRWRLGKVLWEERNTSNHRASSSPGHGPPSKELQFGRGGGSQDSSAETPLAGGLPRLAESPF

SMILES: N#Cc1ccc(COc2cccc(N3C=NN(Cc4nc5ccc(C(=O)O)cc5n4C[C@@H]4CCO4)CC3)n2)c(F)c1
- inhibition at 40 µM (hERG (KCNH2) [1]): 48%
- IC50 [2]: > 40000 nM

SMILES: N#Cc1ccc(COc2cccc(OC3CCN(Cc4nc5ccc(C(=O)O)cc5n4C[C@@H]4CCO4)CC3)n2)c(F)c1
- EC50 [3]: 0.7 nM

SMILES: N#Cc1ccc(COc2cccc(N3CC4(CC3=O)CN(Cc3nc5ccc(C(=O)O)cc5n3C[C@@H]3CCO3)C4)n2)c(F)c1
- EC50 [3]: > 10000 nM

SMILES: COc1cc(N)c(Cl)cc1C(=O)N[C@H]1CCN(CCCOc2ccc(F)cc2)C[C@H]1OC [REL-CISAPRIDE]
- inhibition at 3 µM (hERG (KCNH2) [30]): 92%

SMILES: N#Cc1ccc(COc2cccc(N3CCC(NCc4nc5ccc(C(=O)O)cc5n4C[C@@H]4CCO4)CC3)n2)c(F)c1
- EC50 [3]: 153 nM

SMILES: N#Cc1ccc(COc2cccc(C3CCN(Cc4nc5ccc(C(=O)O)cc5n4C[C@@H]4CCO4)CC3)n2)c(F)c1 [DANUGLIPRON]
- inhibition at 40 µM (hERG (KCNH2) [1]): 90%
- half-life at 1 µM [4]: 6.92 h
- half-life at 1 µM [5]: 2.72 h
- half-life at 1 µM [6]: 2.8 h
- CLH [7]: 5 mL/min/g
- CLH [8]: 13 mL/min/g
- CLH [9]: 13 mL/min/g
- Activity [13]: inactive
- Activity (Mus musculus [21]): Active
- Activity (Mus musculus [23]): Active

Further lines, with some results ahead:

- EC50 [3]: 0.006 nM
- half-life at 1 µM [4]: 2.87 h
- half-life at 1 µM [5]: 1.25 h
- half-life at 1 µM [6]: 1.28 h
- CLH [7]: 12 mL/min/g
- CLH [8]: 28 mL/min/g
- CLH [9]: 27 mL/min/g
- concentration at 1 h [10]: 132 ng/mL
- concentration at 4 h [11]: 35 ng/mL
- Papp A→B at 1.583 h, 10 µM [12]: 0.57 ×10⁻⁶ cm/s
- Activity [13]: inactive
- half-life [14]: 1.05 h
- Tmax [15]: 0.25 h
- Cmax [16]: 130 ng/mL
- AUC(0-t) at 24 h [17]: 70 ng·h/mL
- EC50 [18]: 168 nM
- EC50 [19]: 175 nM
- EC50 [20]: 136 nM
- Ratio EC50 [24]: 10
- Ratio EC50 [25]: 10
- Ratio EC50 [26]: 10
- Activity [27]: inactive
- Activity [28]: inactive
- Activity [29]: inactive
SMILES: COc1cc(C(F)(F)F)ccc1COc1cccc(N2C=NN(Cc3nc4c(F)cc(C(=O)O)cc4n3C[C@@H]3CCO3)CC2)n1
- inhibition at 40 µM (hERG (KCNH2) [1]): 20%
- IC50 [2]: > 40000 nM
- Activity (Mus musculus [21]): Active
- Activity (Mus musculus [22]): Active
- Activity (Mus musculus [23]): Active

- EC50 [3]: 0.6 nM
SMILES: CC1CN(c2cccc(OCc3ccc(C#N)cc3F)n2)C=NN1Cc1nc2ccc(C(=O)O)cc2n1C[C@@H]1CCO1 (stereo partly specified)
